In patent publication US20240024347A1 (The Johns Hopkins University, priority 2020, published 2024):
Read-outs that look alike come from different tables or passages of the source.

Key:
[1] = ALT (liver inflammation marker) and animal weight in sarcoma-model mice
Experimental: (§1) C57BL/6 mice at 10 weeks of age between 25 g and 30 g were obtained from Envigo. To induce solid tumor growth in animals, 3-5 million murine NPcis (NF1^+/−;p53^+/−) tumor cells grown and harvested from cell culture, were injected subcutaneously to the right flank. […] Animals were then randomly assigned to a treatment arm: Vehicle or MK-905 (n=10/group; average tumor volume of ˜200 mm^3). […] Tumor volume was calculated by the formula: volume=(L×(W^2))/2. […]

healthy NSG mice = details: for mice survived >2 weeks: 40 mg/kg group; for Mice surviving >2 weeks: 5 d/week, i.p., healthy female NSG mice, n=5/group
Experimental: Animal weights and body condition scores were measured three times per week. After twenty one days, surviving mice were euthanized and blood collected for clinical chemistry measurements (complete blood count with differential, clinical chemistries). […] 80% of mice survived >2 weeks in the MK-905 40 mg/kg group, and 100% of mice survived the study in the vehicle and MK-905 20 mg/kg groups.

[2] = test system: murine NPcis (NF1^+/−;p53^+/−) tumor cells; test: Tumor growth in murine sarcoma model (subcutaneous NPcis flank tumors); type: in vivo, mouse
Experimental: as §1

[3] = Single timepoint drug metabolite testing (6-TGMP in mouse plasma) after first dose; type: in vivo; details: two hours following initial dose
Experimental: (§2) The in vivo antitumor efficacy of MK-905 was evaluated in the NALM6-Luc-mCh-Puro human acute lymphoblastic leukemia in female NSG mice. Mice were inoculated with tumor cells on day 0, staged by BLI on day 3, and sorted into matched treatment groups. The primary endpoint of the study was tumor bioluminescence imaging (BLI) signal. Secondary endpoints included: animal survival, weight changes, and clinical pathology markers. Single timepoint drug metabolite testing was conducted after the first dose of MK-905. Studies were run in comparison to vehicle or 6-MP treatment.

[4] = test system: NALM6-Luc-mCh-Puro human acute lymphoblastic leukemia; test: In vivo antitumor efficacy, NALM6-Luc-mCh-Puro leukemia in female NSG mice (BLI); details: MK-905 40 then 20 mg/kg i.p./day, 6-MP 20 then 10 mg/kg i.p./day; for day 15 mean BLI signal: 5 days/week, vehicle 1.65×10^10; for percent of the median vehicle group tumor BLI signal: day 15
Experimental: as §2

| SMILES | blood ALT increase compared to vehicle-treated mice ([1]; at sacrifice, 6-MP 20 mg/kg i.p., ten days) | blood ALT as a marker of liver inflammation ([1]; at sacrifice, 6-MP 20 mg/kg i.p., ten days, vehicle 20 U/L) [U/L] | mice survived >2 weeks (healthy NSG mice; healthy NSG mice) | mean tumor volume ([2]; 6-MP 20 mg/kg i.p., following ten days of dosing, vehicle 2,038 mm^3) | conversion to the active 6-thioguanine monophosphate (6-TGMP) metabolite [3] | day 15 mean BLI signal [4] | percent of the median vehicle group tumor BLI signal [4] [%] | Animal weights relative to starting weight ([1]; MK-905 13 mg/kg i.p., fourteen days) [%] | Serum ALT as a marker of liver inflammation (in words) ([1]; MK-905 13 mg/kg i.p., fourteen days, versus vehicle) | mice survived the study (healthy NSG mice; 20 mg/kg group, healthy NSG mice, twenty one days) [%] | Mice surviving >2 weeks (healthy NSG mice; 20 mg/kg) | Mice surviving >2 weeks (healthy NSG mice; 40 mg/kg) | mean tumor volume ([2]; MK-905 13 mg/kg i.p., following fourteen days of dosing, vehicle 1,657 mm^3) [mm^3] | Tumor weights at sacrifice ([2]; MK-905 13 mg/kg i.p., fourteen days, vehicle 1276 mg) [mg] |
| --- | --- | --- | --- | --- | --- | --- | --- | --- | --- | --- | --- | --- | --- | --- |
| Sc1ncnc2nc[nH]c12 [6-MP, 6-mercaptopurine, reference compound] | two-fold increased | 46 | no mice surviving | 1,107 mm^3 | no active metabolite was observed | 1.36×10^10 photons/sec | 77 |  |  |  |  |  |  |  |
| CC(C)OC(=O)[C@H](C)NP(=O)(OC[C@H]1OC(n2cnc3c(=S)[nH]c(N)nc32)C(O)C1O)Oc1ccccc1 (stereo partly drawn) [MK-905] |  |  | 80% |  | observed | 3.27×10^8 photons/sec | 1.3 | ≤ 10 | normal and not significantly different | 100 | 5/5 | 4/5 | 415 | 359 |
